Assay results reported in US9504248B2, “Antimicrobial composition” (Rohm and Haas Company, priority 2011, dated 2016).
In brackets after ≈: the same amount, converted by molar mass.

Each molecule was assayed on Escherichia coli (E. coli - ATCC #10536) (assay: Automated assessment of efficacy in surfactant base, 15 seconds exposure, OD450/OD590 readout (Example 4)). Conditions: cocoyl glycinate and lauroamphoacetate.
Format: cell-based
Description: In these examples, the efficacy of combinations of monosubstituted phenols and terpineol were tested in a surfactant cleansing formulation comprising 2.85% sodium cocoyl glycinate and 1.85% sodium lauroamphoacetate. This corresponds to a 50% in use dilution with water of a typical neat formulation containing 5.7% cocoyl glycinate and 3.7% % sodium lauroamphoacetate during hand washing. Solutions were prepared such that the concentrations of the surfactant components and test actives were 1.1 times the final desired concentration in order to allow for dilution with the bacterial inoculum in the test. The solutions were manually adjusted to pH 10.0 by dropwise addition of sodium hydroxide solution, as measured with a pH meter at ambient temperature. Solutions of the monosubstituted phenols and/or terpineols were prepared at a maximum of 24 hours before testing. The same terpineol was used as in Example 1.
The efficacy of the combinations of the present invention was determined against the same bacterium as in Example 1, Escherichia coli (E. coli—ATCC #10536), at a concentration of approximately 1×10^8 bacteria per mL.
Tests were conducted using standard microtiter plate assays using an automated liquid handling system. 270 μl of the surfactant test solution was pipetted into each well of the microtitre plate (Nunc F Gamma Irradiated 96F untreated microtitre plates of clear polystyrene) and 30 μl of the bacterial suspension was then added. After exactly 15 seconds of bacterial exposure, a 30 μl volume of bacterial cells was withdrawn and transferred to 270 μl of D/E quench solution. After 5 minutes in the D/E quench, the optical density (OD) was measured for each plate in turn at two specific wavelengths (450 nm and 590 nm). These provide a dual check of antimicrobial activity, as the OD450 reading is specific for the yellow colour of D/E quench when bacterial growth is observed, whereas OD590 is specific for the initial purple colour of the D/E quench which is retained if no bacterial growth is observed. After the time zero OD measurements, plates were then incubated at 37° C. overnight (16 hours) before repeating the OD measurements. Delta OD values were calculated by subtracting […] at time=16 hours. Bacterial growth is observed as an increase in OD450 and a decrease in OD590. To identify antibacterially efficacious systems (those preventing appreciable bacterial growth after incubation), the following threshold changes in OD readings have been adopted: if (1). OD450 increases by less than 0.2 absorbance unit (AU) on incubation and (2). OD590 decreases by less than 0.35 AU on incubation. Conversely, where OD450 increases by more than […] after incubation, corresponding to a colour shift from purple to yellow, the test system allows bacterial growth and is not deemed efficacious. Four replicate measurements in the same plate have been made for each test system. The number of replicate wells showing either bacterial growth or no growth is also readily assessed by eye by following the colour change. Thymol and terpineol were tested both alone and in combination for comparison purposes.
In some selected cases, the combinations were also tested at the weight ratio 1:1.
The surfactants used are not themselves antimicrobially active against E. coli at the concentrations employed as shown by the results of Ex. (4:1) in Table 24. Thus, any antimicrobial efficacy can be ascribed to the monosubstituted phenols and/or terpineol. Table 25 presents MBC-values determined similarly as described for Example 1.

SMILES | antimicrobial action in combination with terpineol in the presence of surfactant (in words)
Oc1cccc(-c2ccccc2)c1 [3-phenylphenol] | enhanced antimicrobial action
CC(C)(C)c1cccc(O)c1 [3-tert-butylphenol] | enhanced antimicrobial action
CCCCc1ccc(O)cc1 [4-n-butylphenol] | enhanced antimicrobial action
CCC(C)c1ccc(O)cc1 (centres unmarked) [4-sec-butylphenol] | enhanced antimicrobial action
CC(C)(C)c1ccc(O)cc1 [4-tert-butylphenol] | enhanced antimicrobial action
C/C=C/c1ccccc1O [(E)-2-(prop-1-enyl)phenol] | enhanced antimicrobial action

Each molecule was assayed on Escherichia coli (10536 strain) (assay: 15 second contact suspension kill assay (Example 1 protocol, also Example 3)). Conditions: 15 s contact.
Format: cell-based
From the text: The efficacies of antimicrobial agents can be usefully compared by determining the Minimum Biocidal Concentration (MBC). The MBC is defined as the lowest absolute concentration of the particular active that provides complete kill (zero bacterial growth). The differing behaviours of inhibitory antimicrobtals in Isolation and mixtures have been widely explored using the concept of the Fractional Concentration and Fractional Inhibitory Concentration (FIC). See for instance J R W Lambert and R Lambert, J. Appl. Microblol 95, 734 (2003); T. Jadavji. C G Prober and R Cheung. Antimicrobial Agents and Chemotherapy 26, 91 (1984), and WO 2004/006876. These parameters can be defined as follows:
[formula] [formula] By analogy the Fractional Biocidal Concentration (FBC) is given by:
Antimicrobial efficacy is tested against a representative pathogenic bacterial organism, Gram negative Escherichia coli. Concentrations of actives are expressed in terms of the percentage weight/volume (% w/v) throughout Example 1.
An overnight culture of Escherichia coli (10536 strain) was prepared in 50 ml total volume of TSB broth, grown for ca. 18 hrs at 37° C. and shaken at 150 rpm. 1 ml of this overnight E. coli culture was transferred to 50 ml of fresh TSB broth and incubated at 37° C. at 150 rpm for ca. 4 hours. This culture was separated into equal volumes and centrifuged at 4000 rpm for 15 minutes, washed with sterile saline (0.85% NaCl), centrifuged once more and re-suspended in saline to give a final concentration of 0.8 OD620 equivalent to about 10^8 cells per milliliter for this particular organism. Here, OD620 indicates the absorbance of a sample in a cuvette of 1.0 cm path length at a wavelength of 620 nm. This bacterial stock was used for assaying against antimicrobial actives (in triplicate).
The following assay describes the testing of 8 materials using 6 dilutions across half of a 96-well micro titre plate (MTP). Using this approach it is possible to assay 16 actives (without replicates) with one full dilution plate, replicating this set up in two halves of the plate columns, 1-6 and 7-12.
1M solutions of the test actives were prepared in dimethylsulphoxide (DMSO).
Aliquots (270 μl) of the materials at 1.11 times the final concentration were dispensed into the wells of the MTP along one column (A1-H1). This MTP was labelled as the “Screening plate”.
In another MTP, labelled as the “Dilution plate”, 270 μl of D/E neutralising solution from DIFCO Composition was added to column 1. The composition of the neutralising solution was as follows: pancreatic digest of casein, 5.0 g/L; Yeast Extract, 2.5 g/L; Dextrose, 10 g/L, sodium thioglycollate, 1.0 g/L, sodium thiosulphate, 6.0 g/L; sodium bisulphite, 2.5 g/L; Polysorbate 80, 5.0 g/L; lecithin 7.0 g/L; bromocresol purple, 0.02 g/L with a pH in the range 7.6±0.2.
270 μl of tryptone diluent solution was added to all the remaining wells of the Dilution MTP (columns 2-6).
Bacterial stock (30 μl) was then added to the prepared 270 μl of the solution of actives in the Screening Plate and mixed, using a multichannel pipette with 8 tips to aspirate and dispense the same volume of bacterial stock in parallel to 8 wells in rows A-H. After a contact time of 15 seconds, the mixtures were quenched by transferring 30 μl volumes of the mixtures into the 270 μl D/E neutralising solution in the prepared dilution plate, using aspiration to mix. After exactly 5 minutes in the DIE neutralising solution, 30 μl volumes were transferred from column 1 to column 2 of the Dilution MTP and mixed, before transferring further 30 μl volumes from column 2 into column 3. This process was repeated serially diluting the bacteria across the plate to column 6.
30 μl volumes from each well in the Dilution MTP were transferred onto pre-labelled segment of Tryptone Soya Agar (TSA) plates starting from the lowest bacterial concentration (highest dilution, column 6) to the highest bacterial concentration (column 1).

SMILES | bacterial kill (in words)
Cc1ccc(C(C)C)c(O)c1 [A, thymol, reference compound] | not showing bacterial kill
CC1=CCC(C(C)(C)O)CC1 (stereo not drawn) [B, alpha-terpineol, reference compound] | not showing bacterial kill

Same assay, conditions: 15 s contact; active concentrations (% w/v) as defined per example; 0 = complete kill; mean of triplicate

SMILES | NMBS, mean bacterial survival
CC1=CCC(C(C)(C)O)CC1 (stereo not drawn) [1:4, alpha-terpineol] | 0 log CFU/ml
CC1=CCC(C(C)(C)O)CC1 (stereo not drawn) [1:5, alpha-terpineol] | 0 log CFU/ml
CC1=CCC(C(C)(C)O)CC1 (stereo not drawn) [1:6, alpha-terpineol] | 7 log CFU/ml
CC1=CCC(C(C)(C)O)CC1 (stereo not drawn) [1:7, alpha-terpineol] | 7 log CFU/ml
CCCc1ccc(O)cc1 [1:8, 4-n-propylphenol] | 0 log CFU/ml
CCCc1ccc(O)cc1 [1:9, 4-n-propylphenol] | 7.8 log CFU/ml
CCCCc1ccc(O)cc1 [1:12, 4-n-butylphenol] | 0 log CFU/ml
CCCCc1ccc(O)cc1 [1:13, 4-butylphenol] | 7.0 log CFU/ml
CCCCCc1ccc(O)cc1 [1:15, 4-n-pentylphenol] | 0 log CFU/ml
CCCCCc1ccc(O)cc1 [1:16, 4-pentylphenol] | 6.6 log CFU/ml
CC(C)(C)c1ccccc1O [1:18, 2-tert-butylphenol] | 0 log CFU/ml
CC(C)(C)c1ccccc1O [1:19, 2-tert-butylphenol] | 7.5 log CFU/ml
CC(C)(C)c1cccc(O)c1 [1:21, 3-tert-butylphenol] | 0 log CFU/ml
CC(C)(C)c1cccc(O)c1 [1:22, 3-tert-butylphenol] | 7.6 log CFU/ml
CCC(C)c1ccccc1O (centres unmarked) [1:24, 2-sec-butylphenol] | 0 log CFU/ml
CCC(C)c1ccccc1O (centres unmarked) [1:25, 2-sec-butylphenol] | 7.5 log CFU/ml
CCC(C)c1ccc(O)cc1 (centres unmarked) [1:27, 4-sec-butylphenol] | 0 log CFU/ml

SMILES | NMBS, mean bacterial survival
CCC(C)c1ccc(O)cc1 (centres unmarked) [1:28, 4-sec-butylphenol] | 4.1 log CFU/ml
CCC(C)c1ccc(O)cc1 (centres unmarked) [1:29, 4-sec-butylphenol] | 7.6 log CFU/ml
Oc1ccccc1C1CCCC1 [1:31, 2-cyclopentylphenol] | 0 log CFU/ml
Oc1ccccc1C1CCCC1 [1:32, 2-cyclopentylphenol] | 3.4 log CFU/ml
Oc1ccccc1C1CCCC1 [1:33, 2-cyclopentylphenol] | 7.5 log CFU/ml
Oc1ccc(C2CCCC2)cc1 [1:35, 4-cyclopentylphenol] | 0 log CFU/ml
Oc1ccc(C2CCCC2)cc1 [1:36, 4-cyclopentylphenol] | 7.1 log CFU/ml
C/C=C/c1ccccc1O [1:38, (E)-2-(prop-1-enyl)phenol] | 0 log CFU/ml
C/C=C/c1ccccc1O [1:39, (E)-2-(prop-1-enyl)phenol] | 6.9 log CFU/ml
Oc1ccccc1Cc1ccccc1 [1:41, 2-benzylphenol] | 0 log CFU/ml
Oc1ccccc1Cc1ccccc1 [1:42, 2-benzylphenol] | 7.1 log CFU/ml
Oc1ccc(Cc2ccccc2)cc1 [1:44, 4-benzylphenol] | 0 log CFU/ml
Oc1ccc(Cc2ccccc2)cc1 [1:45, 4-benzylphenol] | 3.8 log CFU/ml
Oc1cccc(-c2ccccc2)c1 [3:1, 3-phenylphenol] | 4.3 log CFU/ml
Oc1cccc(-c2ccccc2)c1 [3:2, 3-phenylphenol] | 7.4 log CFU/ml
Oc1cccc(-c2ccccc2)c1 [3:3, 3-phenylphenol] | 7.7 log CFU/ml

Same assay, conditions: Escherichia coli, 15 s, read-out: Minimum biocidal concentration (MBC)

SMILES | MBC
C/C=C/c1ccccc1O [(E)-2-(prop-1-enyl)phenol] | 1500 µg/mL (≈ 11.2 mM)

Same assay, conditions: Escherichia coli, 15 s, read-out: Minimum biocidal concentration (MBC), component alone; lowest tested concentration giving zero bacterial survival after 15 s; upper boundary

SMILES | MBC
Oc1cccc(-c2ccccc2)c1 [3-phenylphenol] | ≥ 1250 µg/mL

Same assay, conditions: Escherichia coli, 15 s; component alone; lowest tested concentration giving zero bacterial survival after 15 s; upper boundary; read-out: Minimum biocidal concentration (MBC)

SMILES | MBC
CC(C)(C)c1cccc(O)c1 [3-tert-butylphenol] | 800 µg/mL (≈ 5.33 mM)
CCCCc1ccc(O)cc1 [4-n-butylphenol] | 250 µg/mL (≈ 1.66 mM)
CCC(C)c1ccc(O)cc1 (centres unmarked) [4-sec-butylphenol] | 800 µg/mL (≈ 5.33 mM)
Cc1ccc(C(C)C)c(O)c1 [Thymol, thymol, reference compound] | 500 µg/mL (≈ 3.33 mM)
